Where a name gives a salt, the structure may show the parent alone.
Experiments:
mice = test: Writhing Assay (PBQ-induced writhing, analgesia in mice); assay type: in vivo, mice (Charles River male albino); conditions: Mus musculus, po, 25 min, intragastric, PBQ i.p. 25 minutes later, writhes <= one-half the median of saline control; for responders at 10 mg/kg: 10 mg per kilogram, read-out: WRITHING ASSAY Number Out of Nine or Ten (mice in which test compound produced analgesia); for responders at 30 mg/kg: 30 mg per kilogram, read-out: WRITHING ASSAY Number Out of Nine or Ten (mice in which test compound produced analgesia) (converted)
Source text: The Writhing Assay is one of the most widely-used experimental procedures for measuring the analgesic activity of different narcotic and nonnarcotic analgesic agents, and involves the continuous, chemically-induced pain of visceral origin to an animal, such as a mouse or rat. Gyires et al., Arch. int. […] Vander Wende et al., Fed. […] Chemicals which may be used to induce this pain include phenylbenzoquinone (PBQ) and acetic acid. As a result of the chemical irritation to the animal, a characteristic stretching and writhing of the animal (dorsiflexion of the animal's back, extension of its hindlimbs and the strong contraction of its abdominal musculature) will generally occur. […] Drugs which reduce the number of writhes of the animal appear to restore the normal nociceptive threshold of the animal.
Charles River male albino mice, weighing 20 to 30 grams were used in this assay.
Ten mice which were given saline in place of a test compound of the invention were used as a control group.
Five minutes later, each mouse was individually placed into a glass beaker for observation, and the number of writhes occurring during the following ten-minute period was counted.

[1] = tested on: prostaglandin E2 -induced contractions of segments of guinea pig ileum; test: Prostaglandin (PGE) Antagonism Assay in guinea pig ileum; assay type: cell-based; conditions: dose ratio of EC50 doses of prostaglandin E2; initial test compound concentration 3 micromolar; 37° C.
Protocol: In order to determine the effectiveness of several of the compounds of the present invention ("test compounds") as prostaglandin E2 antagonists,a prostaglandin antagonism assay was conducted, as described below, to determine the ability of these compounds to inhibit prostaglandin E2 -induced contractions of segments of guinea pig ileum. […] Male albino guinea pigs weighing 200 to 500 grams were sacrificed by cervical dislocation. The ilea were then quickly removed from the guinea pigs and placed in a modified Tyrode solution, a solution which is known to those skilled in the art, containing one-half of the usual amount of magnesium ions. Segments of ileum about 2 cm long were then cut and mounted in a 10-mL tissue bath containing the modified Tyrode solution. […] Data for a control prostaglandin E2 dose response curve plotting concentration of prostaglandin E2 versus the intensity of contractions, detected isotonically, was then obtained by experimentally adjusting the dose of the prostaglandin E2 being injected into the tissue bath, in a manner known by those of skill in the art. Solutions or suspensions containing an initial concentration (3 micromolar) of a test compound in modified Tyrode solution ("test solutions/suspensions") were then separately substituted for the control bath solution. Each test solution/suspension was then kept in constant contact with the ileum tissue, except for brief periods to drain the bath in preparation for rinsing with fresh test solution/suspension. A second prostaglandin E2 dose response curve was then generated for prostaglandin E2 in the presence of a test compound. A dose ratio of EC50 doses was then calculated from the results of each test in a manner known by those of skill in the art.

[2] = tested on: isolated smooth muscle preparations; conditions: cited from earlier work

Structure (SMILES)	responders at 10 mg/kg (mice) [%]	PGE ANTAGONISM IN GUINEA PIG ILEUM Dose Ratio (DR) [1]	responders at 30 mg/kg (mice) [%]	inhibition of the stimulant actions of prostaglandins on isolated smooth muscle preparations [2]
O=C(c1ccc(/C=C\c2ccncc2)cc1)N1Cc2ccccc2Oc2ccc(Cl)cc21 [Example 8, Compound E, 8-chloro-10,11-dihydro-10-4-2Z-(4-pyridinyl)ethenyl!benzoyl!dibenz b,f! 1 ,4!oxazepine, hydrochloride]	90	4.8	–	–
O=C(NCc1cccnc1)c1ccccc1C(=O)N1Cc2ccccc2Oc2ccc(Cl)cc21 [Example 13, 2-(8-chlorodibenzb,f! 1,4!oxazepin-10 f 11H)yl)carbonyl!-N-(3-pyridinylmethyl)benzamide, hydrochloride]	–	1.10	50	–
O=C(NCc1ccccn1)c1cccc(C(=O)N2Cc3ccccc3Oc3ccc(Cl)cc32)n1 [Example 32, 6-(8-chlorodibenzb,f! 1,4!oxazepin-10(11H)yl)carbonyl!-N,(2-pyridinylmethyl)-2-pyridinecarboxamide, hydrochloride]	–	0.63	30	–
O=C(NCc1cccnc1)c1cccc(C(=O)N2Cc3ccccc3Oc3ccc(Cl)cc32)c1 [Example 17, 3-(8-chlorodibenzb,f! 1,4!oxazepin-10(11H!yl!carbonyl!-N-(3-pyridinylmethyl)benzamide, monohydrochloride]	–	66.0	50	–
O=C(NCc1ccncc1)c1ccc(S(=O)(=O)N2Cc3ccccc3Oc3ccc(Cl)cc32)cc1 [Example 4, 4-(8-chlorodibenzb,f! 1,4!oxazepin-10(11H)yl)sulfonyl!-N-(4-pyridinylmethyl)benzamide, monohydrochloride]	–	–	60	–
O=C(NCc1ccncc1)c1ccccc1C(=O)N1Cc2ccccc2Oc2ccc(Cl)cc21 [Example 12, 2-(8-chlorodibenzb,f! 1,4!oxazepin-10(11H)yl)carbonyl!-N-(4-pyridinylmethyl)benzamide, hydrochloride]	–	4.23	33.3	–
O=C(NCc1cccnc1)c1cccc(C(=O)N2Cc3ccccc3Oc3ccc(Cl)cc32)n1 [Example 31, 6-(8-chlorodibenzb,f! 1,4!oxazepin-10(11H)yl)carbonyl!-N-(3-pyridinylmethyl)-2-pyridinecarboxamide, hydrochloride]	–	1.70	60	–
O=C(NCc1ccccn1)c1ccccc1C(=O)N1Cc2ccccc2Oc2ccc(Cl)cc21 [Example 14, 2-(8-chlorodibenzb,f! 1,4!oxazepin-10(11H)-yl) carbonyl!-N-(2-pyridinylmethyl!benzamide, dihydrochloride]	–	4.07	30	–
O=C(NCc1ccccn1)c1ccc(CN2Cc3ccccc3Oc3ccc(Cl)cc32)cc1 [Example 29, 4-(8-chlorodibenz E b,f! 1,4!oxazepin-10(11H)yl)methyl!-N-(2-pyridinylmethyl)benzamide, hydrochloride]	–	10.4	50	–
O=C(Cc1ccccc1)NNC(=O)N1Cc2ccccc2Oc2ccc(Cl)cc21 [SC-18637]	–	–	–	inhibit the stimulant actions of prostaglandins
O=S(=O)(c1ccc(CCc2ccncc2)cc1)N1Cc2ccccc2Oc2ccc(Cl)cc21 [Example 3, 8-chloro-10,11-dihydro-10-4-2-(4-pyridinyl)ethyl!phenyl!sulfonyl!dibenzb,f! 1,4!oxazepine, monohydrochloride]	–	1.0	50	–
O=C(c1ccc(CCc2ccncc2)cc1)N1Cc2ccccc2Oc2ccc(Cl)cc21 [Example 8, Compound F, 8-chloro-10,11-dihydro-10-4-2-(4-pyridinyl)ethyl!benzoyl!dibenz b,f! 1,4! oxazepine, hydrochloride]	90	1.1	–	–
O=C(NCc1cccnc1)c1ccc(S(=O)(=O)N2Cc3ccccc3Oc3ccc(Cl)cc32)cc1 [Example 5, 4-(8-chlorodibenzb,f! 1,4!oxazepin-10(11H)yl) sulfonyl!-N-(3-pyridinylmethyl)benzamide, monohydrochloride]	–	4.4	30	–
O=C(NCc1cccnc1)c1ccc(CN2Cc3ccccc3Oc3ccc(Cl)cc32)cc1 [Example 28, 4-(8-chlorodibenzb,f! 1,4!oxazepin-10(11H)yl)methyl!-N-(3-pyridinylmethyl)benzamide, hydrochloride]	–	3.59	60	–
O=C(NCc1cccnc1)c1ccc(CN2Cc3ccccc3Oc3ccc(Cl)cc32)cn1 [Example 35, 5-(8-chlorodibenzb,f! 1,4!oxazepin-10(11H)yl)methyl!-N-(3-pyridinylmethyl)-2-pyridinecarboxamide, monohydrochloride]	–	–	70	–
O=C(NCc1ccccn1)c1cccc(C(=O)N2Cc3ccccc3Oc3ccc(Cl)cc32)c1 [Example 18, 3-(8-chlorodibenzb,f! 1,4!oxazepin-10(11H)yl)carbonyl!-N-(2-pyridinylmethyl!benzamide, hydrochloride]	–	114	70	–
O=C(NCc1ccccn1)c1ccc(CN2Cc3ccccc3Oc3ccc(Cl)cc32)cn1 [Example 36, 5-(8-chlorodibenzb,f! 1,4!oxazepin-10(11H)yl)methyl!-N-(2-pyridinylmethyl!-2-pyridinecarboxamide, monohydrochloride]	–	2.6	77.8	–
O=C(NCc1ccncc1)c1ccc(CN2Cc3ccccc3Oc3ccc(Cl)cc32)cn1 [Example 34, 5-(8-chlorodibenzb,f! 1,4!oxazepin-10(11H)yl)methyl!-N-(4-pyridinylmethyl)-2-pyridinecarboxamide, monohydrochloride]	–	1.16	20	–
O=C(NCc1cccnc1)c1ccc(C(=O)N2Cc3ccccc3Oc3ccc(Cl)cc32)cc1 [Example 10, 4-(8-chlorodibenzb,f! 1,4!oxazepin-10(11H)yl)carbonyl!-N-f3,pyridinylmethyl)benzamide, hydrochloride]	–	3.2	40	–
CC(=O)NNC(=O)N1Cc2ccccc2Oc2ccc(Cl)cc21 [SC-19220]	–	–	–	inhibit the stimulant actions of prostaglandins
O=C(NCc1ccncc1)c1cccc(C(=O)N2Cc3ccccc3Oc3ccc(Cl)cc32)c1 [Example 16, 3-f 8-chlorodibenz b,f! 1,4!oxazepin-10(11H)yl)carbonyl!-N-(4-pyridinylmethyl)benzamide, monohydrochloride]	–	4.67	80	–
O=C(NCc1ccncc1)c1ccc(CN2Cc3ccccc3Oc3ccc(Cl)cc32)cc1 [Example 27, 4-(8-chlorodibenzb,f! 1,4!oxazepin-10(11H)yl)methyl!-N-(4-pyridinylmethyl)benzamide, hydrochloride]	–	22.7	50	–
O=C(NCc1ccncc1)c1ccc(C(=O)N2Cc3ccccc3Oc3ccc(Cl)cc32)cc1 [Example 9, 4-(8-chlorodibenzb,f! 1,4!oxazepin-10(11H)-yl)carbonyl!-N-(4-pyridinylmethyl)benzamide, hydrochloride]	80	2.29	–	–
O=C(NCc1ccncc1)c1cccc(C(=O)N2Cc3ccccc3Oc3ccc(Cl)cc32)n1 [Example 30, 6-(8-chlorodibenzb,f! 1,4!oxazepin-10(11H)yl)carbonyl!-N-(4-pyridinylmethyl)-2-pyridinecarboxamide, hydrochloride]	–	0.81	70	–
